{
  "source": "patent US20160193240A1",
  "about": "“Ulmoside-A: Useful For Prevention Or Cure Of Metabolic Diseases” (COUNCIL OF SCIENTIFIC & INDUSTRIAL RESEARCH, priority 2013, published 2016)",
  "key": {"[1]": {"system": "wistar rats", "experiment": "Dexamethasone-mediated reduction in serum osteocalcin in rats (ELISA)", "assay_type": "in vivo, rat", "details": "Dex + ULMA, 14 days", "description": "(§1) Food intake was measured daily and the rats were weighed each week. The rats were fasted overnight (O/N) on day 14th and on day 15th oral glucose tolerance test was performed. Following oral glucose tolerance test (OGTT), rats were kept with food and water ad libitum for one day. On day 16th, rats were fasted again O/N and then euthanized. At autopsy, from 5 animals/group, tissues were collected and snap frozen in liquid nitrogen. Blood was collected from cardiac punctures. Plasma was separated from whole blood by centrifugation at 3000 rpm for 20 min immediately after collection of blood and stored at −80° C. until further analysis. […] (quadriceps) skeletal muscles were processed for RNA and protein extraction, followed by quantitative real-time PCR (QRT-PCR) analysis. Two animals from each group were used for photography post autopsy."}, "[2]": {"system": "wistar rats", "experiment": "Dexamethasone-induced skeletal muscle atrophy in rats (limb appearance, QRT-PCR of PGC-1α and atrogenes)", "assay_type": "in vivo, rat", "description": "Following 15 d indicated treatment of rats, the skeletal muscle (pulled hind limb) were collected and RNA was extracted from them and QRT-PCR was performed in a Roche lightcycler 480 machine. Data represents mean+/−SEM from six animals done in triplicates. “a” statistical analysis between Vehicle and Dexamethasone-treated groups, “b”, statistical analysis between dex-treated and dex+ ULMA groups. P<0.05, as determined by student's t-test, n=6.\nBlood was collected from cardiac punctures.\nRNA was isolated from skeletal muscles using Trizol (according to manufacturers' protocol) and reverse transcribed as described above and either PGC-1α expression or muscle atrophy related genes (atrogenes) expression were examined."}, "[3]": {"system": "wistar rats", "experiment": "Dexamethasone induced loss of body weight and death in rats", "details": "for Final body weight (g) / Survival/group (%): 2 weeks", "description": "All animal experiments were conducted in accordance with current legislation on animal experiments [Institutional Animal Ethical Committee (IAEC)] at C.D.R.I. In all animal experiments, rats were individually housed at 21° C., in 12-h light:12-h dark cycles. All animals had access to normal chow diet and water ad libitum.\nas §1"}, "[4]": {"system": "3T3L-1 mouse pre-adipocyte cells", "experiment": "Brown adipose marker expression in differentiating 3T3L-1 preadipocytes", "assay_type": "cell-based", "description": "A. 3T3L-1 mouse preadipocyte cells in 6 well plates were allowed to reach full confluence. Two days following confluence (designated as day 0), the growth medium was replaced with differentiation medium (DM). After two days of incubation in DM, this medium was replaced with insulin medium (Ins) and the cells were incubated in Ins for 2 days and then the insulin medium was replaced with growth medium (GM) and the cells were cultured for a total of 10 days (starting from day 0). The cells were treated with vehicle (0.1% DMSO) or ULMA (10 nM in 0.1% DMSO) on day 0 and the total treatment duration was 10 days. In all cases, medium was replaced with fresh corresponding medium every day containing vehicle (0.1% DMSO) or 10 nM ULMA (in DMSO; final DMSO concentration in all wells 0.1% vol/vol). After a total of 10 days from day 0, cells were washed in cold PBS and RNA was extracted using trizol reagent using standard procedure following which cDNA synthesis was done and UCP-1, UCP-2, PGC-1α and PRDM16 expression were determined using QRT-PCR, normalized with Beta-actin mRNA and plotted as fold induction over vehicle treated control. Data is mean±SEM of three independent experiments performed in triplicates. **p<0.01 as determined by two tailed unpaired student's t-test.\nC. Cells from identical set of experiments as described in FIGS. 5A and 5B or human SVFs prepared by collagenase digestions were analyzed by western blot analysis for determination of UCP-1, UCP-2 and PGC-1α protein level. Beta-actin was used as a loading control. Data is representative of three independent experiments.\nAdiponectin has previously been described to enhance mitochondrial function in adipose tissues and induces its thermogenic potential and therefore causes a conversion towards brown adipose phenotype characterized by an increase in UCPs, in particular UCP-1 (I. B. Bauche, S. A. E. Mkadem, A-M. Pottier, M. Senou, M-C. Many, R. Rersohazy, L. Penicaud, N. Maeda; T. Funahashi, S. M. Brichard. Endocrinology 148(4):1539-1549. 2007). Therefore, the ability of ULMA to induce UCP-1 and 2 in different stages of adipocyte differentiation was checked. We also checked other brown adipose markers such as PGC-1α and PR domain containing 16 (PRDM16). 3T3L-1 mouse pre-adipocyte cells (ATCC, CL-173) maintained in growth medium (DMEM with 4.5 mg/ml glucose, 4.0 mM glutamine, 1 mM sodium pyruvate, 10% FBS and 1× antibiotic-antimycotic solution (all reagents from invitrogen)) were plated in 6 well plates and allowed to reach full confluence. […] After two days of incubation in differentiation medium, this medium was replaced with insulin medium (DMEM, 10% FBS, plus 1.5 μg/ml insulin) and the cells were incubated in insulin medium for 2 days and then the insulin medium was replaced with growth medium and the cells were then cultured for total of 10 days (from day 0). For ULMA treatment, the cells were treated on day 0 (the day on which differentiation medium was added), and the treatment was continued for a total of 10 days. In all cases, medium was replaced with fresh medium containing vehicle (0.1% DMSO) or 10 nM ULMA every day. After 10 days from day 0, cells were washed in cold PBS and RNA was extracted using trizol reagent using standard procedure following which cDNA synthesis was done and transcript expression was determined using QRT-PCR as described above.\nFor western blot-based determination of UCP-1, UCP-2 and PGC-1α protein level, cells from an identical set of experiment were lysed and western blotted with UCP-1, UCP-2 (Abcam), PGC-1α(Calbiochem), or beta-actin (cell signaling technology; used as a loading control) as described above."}, "[5]": {"details": "10 nM, 10 days of differentiation"}, "[6]": {"details": "differentiated in presence of ULMA, 10 days"}},
  "note": "Marks after values point to notes of the source that are not given here.",
  "data": [
    {"compound": "O=C1c2c(cc(O)c([C@@H]3O[C@H](CO)[C@@H](O)[C@H](O)[C@H]3O)c2O)O[C@@H](c2ccc(O)c(O)c2)[C@@H]1O", "note": "[ULMA, (2S,3S)-(+)-3′,4′,5,7-tetrahydroxydihydroflavonol-6-C-β-D-glucopyranoside]", "values": [
      {"measurement": "Osteocalcin (ng/ml)", "setting": "[1]", "result": "387.7 ± 16.1^a ng/ml"},
      {"measurement": "Dex-caused reduction of skeletal muscle PGC-1α level", "setting": "[2]; Dex + ULMA", "result": "protected"},
      {"measurement": "protection against induction of atrogenes by dexamethasone", "setting": "[2]; Dex + ULMA", "result": "completely protected"},
      {"measurement": "skeletal muscle PGC-1α expression", "setting": "[2]; ULMA alone", "result": "robust induction"},
      {"measurement": "Dex-induced limb abnormality", "setting": "[2]; ULMA co-treatment with Dex", "result": "prevented it"},
      {"measurement": "Final body weight (g)", "setting": "[3]; Dex + ULMA-1 mg", "result": "176.5 ± 5.9^c g"},
      {"measurement": "Survival/group (%)", "setting": "[3]; Dex + ULMA-1 mg", "result": 73.3, "unit": "%"},
      {"measurement": "Final body weight (g)", "setting": "[3]; Dex + ULMA-5 mg", "result": "192.7 ± 3.8^b,c g"},
      {"measurement": "Survival/group (%)", "setting": "[3]; Dex + ULMA-5 mg", "result": 100, "unit": "%"},
      {"measurement": "change in body weight in control animals", "setting": "[3]; rat, in vivo", "result": "did not cause any significant change"},
      {"measurement": "PGC-1α mRNA level", "setting": "[4]; [5]", "result": "significant increase"},
      {"measurement": "PRDM16 mRNA level", "setting": "[4]; [5]", "result": "significant increase"},
      {"measurement": "UCP-1 mRNA level", "setting": "[4]; [5]", "result": "significant increase"},
      {"measurement": "UCP-2 mRNA level", "setting": "[4]; [5]", "result": "significant increase"},
      {"measurement": "PGC-1α protein level", "setting": "[4]; [6]", "result": "elevated"},
      {"measurement": "UCPs protein level", "setting": "[4]; [6]", "result": "elevated"}
    ]}
  ]
}
